Results published in PubChem BioAssay (NCI).
“And” between values parts separate entries of the source, which are not always exact repeats. Equal values may be shown once.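 Where inhibition never reached the appropriate level, the endpoint shown equals the highest concentration tested. Otherwise, values were interpolated linearly from a five-concentration, 48-hour dose response in 96-well plates. GI50 marks 50% less growth. TGI: total growth inhibition.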

Experiments:
Assay in all cases: NCI anticancer screen, dose series, 48 h
HL-60(TB) leukemia = tested on: HL-60(TB) leukemia
OVCAR-4 ovarian = tested on: OVCAR-4 ovarian
OVCAR-5 ovarian = tested on: OVCAR-5 ovarian
SF-268 CNS = tested on: SF-268 CNS
SK-MEL-2 melanoma = tested on: SK-MEL-2 melanoma
NCI-H460 lung = tested on: NCI-H460 lung
A549 NSCLC = tested on: A549 NSCLC
MALME-3M melanoma = tested on: MALME-3M melanoma
M14 melanoma = tested on: M14 melanoma
MDA-MB-231 breast = tested on: MDA-MB-231 breast

SMILES	GI50 (HL-60(TB) leukemia) [µM]	GI50 (OVCAR-4 ovarian) [µM]	TGI (OVCAR-4 ovarian) [µM]	GI50 (OVCAR-5 ovarian) [µM]	TGI (OVCAR-5 ovarian) [µM]	GI50 (SF-268 CNS) [µM]	TGI (SF-268 CNS) [µM]	GI50 (SK-MEL-2 melanoma) [µM]	TGI (SK-MEL-2 melanoma) [µM]	GI50 (NCI-H460 lung) [µM]	TGI (NCI-H460 lung) [µM]	GI50 (A549 NSCLC)	TGI (A549 NSCLC) [µM]	TGI (MALME-3M melanoma) [µM]	TGI (HL-60(TB) leukemia)	TGI (M14 melanoma) [µM]	GI50 (MDA-MB-231 breast) [µM]	TGI (MDA-MB-231 breast) [µM]	GI50 (M14 melanoma) [µM]	GI50 (MALME-3M melanoma) [µM]
COC1=CC(c2ccc[nH]2)=N/C1=C\c1[nH]c(C)c(C(C)=O)c1C	0.168	3.51	> 100	> 100	> 100	0.854	> 100	1.99	6.63	0.451	> 22.8	2.02 µM	> 44.8							
COc1ccc(-c2cc(-c3cc(C)ccc3O)[nH]c(=O)n2)cc1			> 100				> 100				> 100		> 100	> 100	> 100 µM	> 100				
O=C1OC(c2ccccc2)=N/C1=C\c1cc(Cl)ccc1Cl			> 100		> 100		> 100		> 100		> 100		> 100	> 100	35.3 µM	> 100				
O=C(O)c1c[nH]c2c(OCc3ccccc3)c3ccccc3c(O)c2c1=O	19.7	43.6	> 100	20	34.2	22.4	64			14.9	38.7	16.4 µM	30.7		46.1 µM	25.2	20.2	> 100	12.6	
COC1OC(COS(=O)(=O)c2ccc(C)cc2)C(O)C(OS(=O)(=O)c2ccc(C)cc2)C1OS(=O)(=O)c1ccc(C)cc1 (stereo unspecified)			> 100		> 100		> 100		> 100		> 100		> 100	> 100	> 100 µM	> 100				
CCOC(=O)C(=O)Nc1c(C)cccc1C(C)C			> 100		> 100		> 100		> 100		> 100		> 100	> 100	> 100 µM	> 100				
N#Cc1c(N)nc(NCc2ccccc2)c(C#N)c1-c1ccccc1Cl		5.04	45.3	26.8	> 100	12.6	58.5	22.9	93.5	4.99	30.1	21.3 µM	> 100	90.2		> 100	5.76	33.8	23.2	21
Nc1ccc(-c2nc3ccccc3o2)cc1S	14.5	7.58	26	19.2	45.3	15	34.5	42.4	> 100	13.2	29.6	14.3 µM	41.5		42 µM	36.7	6.14	23.6	15.5	
COC(=O)CS(=O)c1ccccc1 (stereo unspecified)			> 100		> 100		91.6		> 100		> 100		> 100	> 100	37 µM	> 100				
COc1cccc(Cn2c(-c3nonc3NC(C)=O)nc3ccccc32)c1		15.6	> 100	4.04	> 100	7.82	> 100	3.07	18.9	2.45	> 100	5.81 µM	> 100	43.8		> 100	3.62	> 100	4.02	3.31
O=C(O)c1cccc2cccc(C(=O)O)c12.[Hg]	19.3	18	32.6	19.4	33.5	11.5	26.5	17.4	31.6	16.4	31.7	20.4 µM	42.3	15	42.2 µM	27			14	4.04
COC(=O)C1=C(CS(=O)c2ccc([N+](=O)[O-])cc2[N+](=O)[O-])ON(C)C1c1ccccc1 (stereo unspecified)			> 100		> 100		> 100		> 100		> 100		> 100	> 100	24.2 µM	> 100				
COC(=O)C(Cc1ccccc1)NC(=O)Cn1ccnc1[N+](=O)[O-] (stereo unspecified)			> 100		> 100		> 100		> 100		> 100		> 100	> 100	> 100 µM	> 100				
CCOC(=O)N[C@@H]1C2CC(=O)C(O2)[C@@H]1OC (stereo partly specified)			> 100		> 100		> 100		> 100		> 100		> 100	> 100	> 100 µM	> 100				
O=C(CN1C(=O)S/C(=C\C(Cl)=C\c2ccccc2)C1=O)NCCc1ccc(O)cc1		2.61	11.9	2.31	5.66	2.28	6.63	2.64	7.74	2	6.12	3.1 µM	> 100	5.96		4.11	2.09	6.52	1.65	2.03
NC(=O)Nc1c([N+](=O)[O-])cc(C(F)(F)F)cc1[N+](=O)[O-]			> 100		> 100		> 100		> 100		> 100		> 100		> 100 µM	> 100				
NCCCNCCSSC/C=C\CSSCCNCCCN			> 100		> 100		> 100		> 100		> 100	> 100 µM and 46.8 µM	> 100	> 100	46.4 µM and 39.1 µM	> 100				
Cc1ccc(C(=O)C#Cc2c[nH]c(=O)[nH]c2=O)cc1			47.3		33		26.2		27.6		33.8		39.8	18.7	35.1 µM	35				
